Numbered stars: 1 amine (or outer) side, 2 acyl side, 3 side chain; on linkers, the order of the positions; unused ones are H or OH. Bridge positions count the residues as written; N and C are the ends. Square brackets hold non-standard residues; d marks the D form. Peptide text beside a SMILES is read from it. * marks the point of attachment. X5 = O=C([C@H](Cc1cc(C2CCCC2)c(OCc2ccccc2)c(C2CCCC2)c1)N[*:1])[*:2]; X1 = O=C([C@H](Cc1ccc(OCc2ccccc2)c(C2CCCC2)c1)N[*:1])[*:2]; Benzoyl(4-Br) = O=C(c1ccc(Br)cc1)*; hArg = N=C(N)NCCCC[C@H](N)C(=O)O; pGlu = O=C1CC[C@@H](C(=O)O)N1; Nle = CCCC[C@H](N)C(=O)O; Bn = c1ccc(C*)cc1
What was measured:
hAPJ receptor [1] = target: T1, hAPJ receptor (Homo sapiens, UniProt P35414); test: BRET-based Gαi1 activation assay in HEK293 cells; assay type: cell-based
T1 construct: expressed in transfected cells; host or cells: HEK293, transient transfection with PEI
T1 sequence (P35414 1-380): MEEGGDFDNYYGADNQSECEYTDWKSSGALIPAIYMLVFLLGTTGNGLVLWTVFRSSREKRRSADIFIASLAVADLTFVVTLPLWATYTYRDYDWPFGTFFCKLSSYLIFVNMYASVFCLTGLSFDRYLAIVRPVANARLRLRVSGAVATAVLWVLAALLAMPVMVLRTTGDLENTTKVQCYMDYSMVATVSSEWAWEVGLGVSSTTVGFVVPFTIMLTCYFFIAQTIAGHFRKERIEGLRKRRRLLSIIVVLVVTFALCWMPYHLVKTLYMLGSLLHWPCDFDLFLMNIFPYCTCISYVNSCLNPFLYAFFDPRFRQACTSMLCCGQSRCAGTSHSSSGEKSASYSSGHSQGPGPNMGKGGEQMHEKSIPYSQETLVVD
Method: (§1) HEK293 cells were cultivated in high glucose DMEM medium having 10% FBS, 100 U/mL penicillin/streptomycin, 2 mM glutamine, and 20 mM HEPES at 37° C. in T175 flasks under humidified chamber at 5% CO2. […] Cells were then washed with phosphate-buffered saline (PBS) and 90 μL Hanks' balanced salt solution was added in each well. Then, cells were stimulated with analogs at concentrations ranging from 10^−5 M to 10^−11 M for 5 min at 37° C. (Gαi1) or for 30 min at room temperature (β-arrestin2). After stimulation, 5 μM of coelanterazine 400A was added to each well and the plate was read using the BRET^2 filter set of a GeniosPro plate reader (Tecan, Austria). The BRET ratio was determined as GFP10em/RlucIIem. Data were plotted and EC50 values were determined using GraphPad Prism 8. Each data point represents the mean±SEM of at least three different experiments each done in triplicate.

hAPJ receptor [2] = target: T1, hAPJ receptor; test: BRET-based β-arrestin2 recruitment assay in HEK293 cells; assay type: cell-based
Method: as §1

[3] = HEK293, Table V, read-out: Gαi1 Emax
[4] = HEK293, Table V, read-out: ß-arr2 Emax

CCCC[C@H](NC(=O)[C@@H]1CCC(=O)NCCCC[C@H](N)C(=O)N[C@@H](CCCNC(=N)N)C(=O)N[C@@H](CCCNC(=N)N)C(=O)N1)C(=O)N1CCC[C@H]1C(=O)N[C@@H](CC(C)C)C(=O)N[C@@H](Cc1c[nH]cn1)C(=O)N[C@@H](CO)C(=O)N[C@@H](CCCNC(=N)N)C(=O)N[C@H](C(=O)N1CCC[C@H]1C(=O)N[C@@H](Cc1ccccc1)C(=O)N1CCC[C@H]1C(=O)O)C(C)C [Compound 72, c[K-R-R-E]-Nle-P-L-H-S-R-V-P-F-P] (H-KRRE[Nle]PLHSRVPFP-OH; lactam 1-4)
EC50 (hAPJ receptor [1]): 0.0017 ± 0.0004 µM
EC50 (hAPJ receptor [2]): 0.047 ± 0.002 µM

CCCC[C@H](NC(=O)[C@@H]1CCCN1C(=O)[C@@H]1CCCCNC(=O)CC[C@H](NC(=O)[C@H](CC(C)C)NC(=O)[C@H](CCCNC(=N)N)NC(=O)[C@@H]2CCCN2C(=O)[C@H](CCCNC(=N)N)NC(=O)[C@H](CCC(N)=O)NC(=O)[C@H](CCCNC(=N)N)NC(=O)[C@H](CCCNC(=N)N)NC(=O)[C@H](Cc2ccccc2)NC(=O)[C@H](CCCCN)NC(C)=O)C(=O)N[C@@H](Cc2c[nH]cn2)C(=O)N[C@@H](CCCCN)C(=O)N1)C(=O)N1CCC[C@H]1C(=O)N[C@@H](Cc1ccc(OCc2ccccc2)c(C2CCCC2)c1)C(=O)O [Compound 63, Ac-K-F-R-R-Q-R-P-R-L-[E-H-K-K]-P-Nle-P-cypTyrOBn] (Ac-KFRRQRPRLEHKKP[Nle]P[X1]-OH; lactam 10-13)
EC50 (hAPJ receptor [1]): 0.00548 µM
EC50 (hAPJ receptor [2]): 0.0636 µM

CC(C)C[C@@H]1NC(=O)[C@@H]2CCCN2C(=O)[C@@H](NC(=O)[C@H](CO)NC(=O)[C@H](CCCNC(=N)N)NC(=O)[C@H](CCCCNC(=N)N)NC(=O)[C@@H]2CCC(=O)N2)CCC(=O)NCCCC[C@@H](C(=O)N[C@@H](CCCNC(=N)N)C(=O)N[C@H](C(=O)N2CCC[C@H]2C(=O)N[C@@H](Cc2ccccc2)C(=O)N2CCC[C@H]2C(=O)O)C(C)C)NC(=O)[C@H](Cc2c[nH]cn2)NC1=O [Compound 90, Pyr-hR-R-S-[E-P-L-H-K]-R-V-P-F-P]
EC50 (hAPJ receptor [2]): 0.394 ± 0.047 µM

CCCC[C@H](NC(=O)[C@@H]1CCCN1C(=O)CNC(=O)[C@H](CCCCN)NC(=O)[C@@H]1CCN(S(=O)(=O)c2ccccc2[N+](=O)[O-])CC=CC[C@H](NC(=O)[C@H](CCCNC(=N)N)NC(=O)[C@@H]2CCC(=O)N2)C(=O)N[C@@H](CCCNC(=N)N)C(=O)N[C@@H](CC(C)C)C(=O)N[C@@H](CO)C(=O)N1)C(=O)N1CCC[C@H]1C(=O)N[C@@H](Cc1ccccc1)C(=O)O [Compound 16, Pyr-R-c[X-R-L-S-Alnb]c-K-G-P-Nle-P-F]
Emax (hAPJ receptor [1]; HEK293, read-out: Gαi1 Emax): 102%
Emax (hAPJ receptor [2]; HEK293, read-out: ß-arr2 Emax): 98%

CC(C)C[C@@H]1NC(=O)[C@H](CCCNC(=N)N)NC(=O)[C@@H](N)CC=CC[C@@H](C(=O)N[C@@H](CCCCN)C(=O)NCC(=O)N2CCC[C@H]2C(=O)N[C@H](Cc2ccc(OCc3ccccc3)cc2)C(=O)O)NC(=O)[C@H](CO)NC1=O [Compound 44, NH2-c[X-R-L-S-X]c-K-G-P-(D-TyrOBn)]
Emax (hAPJ receptor [1]; [3]): 104%
Emax (hAPJ receptor [2]; [4]): 78%

CCCC[C@H](NC(=O)[C@@H]1CCCN1C(=O)CNC(=O)[C@H](CCCCN)NC(=O)[C@@H]1CCN(C)CC=CC[C@H](NC(=O)[C@H](CCCNC(=N)N)NC(=O)[C@@H]2CCC(=O)N2)C(=O)N[C@@H](CCCNC(=N)N)C(=O)N[C@@H](CC(C)C)C(=O)N[C@@H](CO)C(=O)N1)C(=O)N1CCC[C@H]1C(=O)N[C@@H](Cc1ccccc1)C(=O)O [Compound 19, Pyr-R-c[X-R-L-S-Almb]c-K-G-P-Nle-P-F]
Emax (hAPJ receptor [1]; [3]): 102%
Emax (hAPJ receptor [2]; [4]): 90%

CCCC[C@H](NC(=O)[C@@H]1CCCN1C(=O)[C@@H]1CCCCNC(=O)CC[C@H](NC(=O)[C@H](CC(C)C)NC(=O)[C@H](CCCNC(=N)N)NC(=O)[C@@H]2CCCN2C(=O)[C@H](CCCNC(=N)N)NC(=O)[C@H](CCC(N)=O)NC(=O)[C@H](CCCNC(=N)N)NC(=O)[C@H](CCCNC(=N)N)NC(=O)[C@H](Cc2ccccc2)NC(=O)[C@H](CCCCN)NC(C)=O)C(=O)N[C@@H](Cc2c[nH]cn2)C(=O)N[C@@H](CCCCN)C(=O)N1)C(=O)N1CCC[C@H]1C(=O)N[C@@H](Cc1cc(C2CCCC2)c(OCc2ccccc2)c(C2CCCC2)c1)C(=O)O [Compound 65, Ac-K-F-R-R-Q-R-P-R-L-[E-H-K-K]-P-Nle-P-dcypTyrOBn] (Ac-KFRRQRPRLEHKKP[Nle]P[X5]-OH; lactam 10-13)
EC50 (hAPJ receptor [2]): > 10 µM

CC(C)C[C@@H]1NC(=O)[C@H](CCCNC(=N)N)NC(=O)[C@@H](N)CC=CC[C@@H](C(=O)N[C@@H](CCCCN)C(=O)NCC(=O)N2CCC[C@H]2C(=O)N[C@H](Cc2ccc(O)cc2)C(=O)O)NC(=O)[C@H](CO)NC1=O [Compound 45, NH2-c[X-R-L-S-X]c-K-G-P-(D-Tyr)]
Emax (hAPJ receptor [1]; [3]): 100%
Emax (hAPJ receptor [2]; [4]): 54%

CCCC[C@H](NC(=O)[C@@H]1CCCN1C(=O)CNC(=O)[C@H](CCCCN)NC(=O)[C@@H]1CCN(S(=O)(=O)c2ccccc2[N+](=O)[O-])CC=CC[C@H](N)C(=O)N[C@@H](CCCNC(=N)N)C(=O)N[C@@H](CC(C)C)C(=O)N[C@@H](CO)C(=O)N1)C(=O)N1CCC[C@H]1C(=O)N[C@@H](Cc1ccccc1)C(=O)O [Compound 28, NH2-c[X-R-L-S-Alnb]c-K-G-P-Nle-P-F]
Emax (hAPJ receptor [1]; [3]): 106%
Emax (hAPJ receptor [2]; [4]): 82%

CCCC[C@H](NC(=O)[C@@H]1CCCN1C(=O)CNC(=O)[C@H](CCCCN)NC(=O)[C@@H]1CCNCC=CC[C@H](NC(=O)[C@H](CCCNC(=N)N)NC(=O)[C@@H]2CCC(=O)N2)C(=O)N[C@@H](CCCNC(=N)N)C(=O)N[C@@H](CC(C)C)C(=O)N[C@@H](CO)C(=O)N1)C(=O)N1CCC[C@H]1C(=O)N[C@@H](Cc1ccccc1)C(=O)O [Compound 18, Pyr-R-c[X-R-L-S-Alb]c-K-G-P-Nle-P-F]
Emax (hAPJ receptor [1]; [3]): 100%
Emax (hAPJ receptor [2]; [4]): 86%

CC(C)C[C@@H]1NC(=O)[C@@H]2CCCN2C(=O)[C@@H](NC(=O)[C@H](CO)NC(=O)[C@H](CCCNC(=N)N)NC(=O)[C@H](CCCNC(=N)N)NC(=O)[C@@H]2CCC(=O)N2)CCC(=O)NCCCC[C@@H](C(=O)N[C@@H](CCCNC(=N)N)C(=O)N[C@H](C(=O)N2CCC[C@H]2C(=O)N[C@@H](Cc2ccccc2)C(=O)N2CCC[C@H]2C(=O)O)C(C)C)NC(=O)[C@H](Cc2c[nH]cn2)NC1=O [Compound 77, Pyr-R-R-S-c[E-P-L-H-K]-R-V-P-F-P]
EC50 (hAPJ receptor [2]): 0.247 ± 0.062 µM

CCCC[C@H](NC(=O)[C@@H]1CCCN1C(=O)CNC(=O)[C@H](CCCCN)NC(=O)[C@@H]1CC=CC[C@H](NC(=N)N)C(=O)N[C@@H](CCCNC(=N)N)C(=O)N[C@@H](CC(C)C)C(=O)N[C@@H](CO)C(=O)N1)C(=O)N1CCC[C@H]1C(=O)N[C@@H](Cc1ccccc1)C(=O)O [Compound 23, Guanidine-c[X-R-L-S-X]c-K-G-P-Nle-P-F]
Emax (hAPJ receptor [1]; [3]): 103%
Emax (hAPJ receptor [2]; [4]): 92%

CCCC[C@H](NC(=O)[C@@H]1CCCN1C(=O)[C@@H]1CCCCNC(=O)CC[C@H](NC(=O)[C@H](CC(C)C)NC(=O)[C@H](CCCNC(=N)N)NC(=O)[C@@H]2CCCN2C(=O)[C@H](CCCNC(=N)N)NC(=O)[C@H](CCC(N)=O)NC(=O)[C@H](CCCNC(=N)N)NC(=O)[C@H](CCCNC(=N)N)NC(=O)[C@H](Cc2ccccc2)NC(=O)[C@H](CCCCN)NC(C)=O)C(=O)N[C@@H](Cc2c[nH]cn2)C(=O)N[C@@H](CCCCN)C(=O)N1)C(=O)N1CCC[C@H]1C(=O)N[C@@H](Cc1ccc(OCc2ccccc2)cc1)C(=O)O [Compound 66, Ac-K-F-R-R-Q-R-P-R-L-[E-H-K-K]-P-Nle-P-TyrOBn] (Ac-KFRRQRPRLEHKKP[Nle]PY(Bn)-OH; lactam 10-13)
EC50 (hAPJ receptor [2]): 0.334 µM

CCCC[C@@H]1NC(=O)[C@@H](NC(=O)[C@H](CCCNC(=N)N)NC(=O)[C@H](CCCNC(=N)N)NC(=O)[C@@H]2CCC(=O)N2)CCC(=O)NCCCC[C@@H](C(=O)N[C@@H](Cc2c[nH]cn2)C(=O)N[C@@H](CO)C(=O)N[C@@H](CCCNC(=N)N)C(=O)N[C@H](C(=O)N2CCC[C@H]2C(=O)N[C@@H](Cc2ccccc2)C(=O)N2CCC[C@H]2C(=O)O)C(C)C)NC(=O)[C@@H]2CCCN2C1=O [Compound 75, Pyr-R-R-c[E-Nle-P-K]-H-S-R-V-P-F-P] ([pGlu]RRE[Nle]PKHSRVPFP-OH; lactam 4-7)
EC50 (hAPJ receptor [2]): 2.02 ± 0.479 µM

CC(C)C[C@@H]1NC(=O)[C@@H]2CCCN2C(=O)[C@@H](NC(=O)[C@H](CO)NC(=O)[C@H](CCCCNC(=N)N)NC(=O)[C@H](CCCNC(=N)N)NC(=O)[C@@H]2CCC(=O)N2)CCC(=O)NCCCC[C@@H](C(=O)N[C@@H](CCCNC(=N)N)C(=O)N[C@H](C(=O)N2CCC[C@H]2C(=O)N[C@@H](Cc2ccccc2)C(=O)N2CCC[C@H]2C(=O)O)C(C)C)NC(=O)[C@H](Cc2c[nH]cn2)NC1=O [Compound 91, Pyr-R-hR-S-[E-P-L-H-K]-R-V-P-F-P] ([pGlu]R[hArg]SEPLHKRVPFP-OH; lactam 5-9)
EC50 (hAPJ receptor [1]): 0.0043 ± 0.0011 µM
EC50 (hAPJ receptor [2]): 0.173 ± 0.02 µM

CC(C)C[C@@H]1NC(=O)[C@@H]2CCCN2C(=O)[C@@H](NC(=O)[C@H](CO)NC(=O)[C@H](CCCNC(=N)N)NC(=O)[C@H](CCCNC(=N)N)NC(=O)c2ccc(Br)cc2)CCC(=O)NCCCC[C@@H](C(=O)N[C@@H](CCCNC(=N)N)C(=O)N[C@H](C(=O)N2CCC[C@H]2C(=O)N[C@@H](Cc2ccccc2)C(=O)N2CCC[C@H]2C(=O)O)C(C)C)NC(=O)[C@H](Cc2c[nH]cn2)NC1=O [Compound 89, 4BrBz-R-R-S-[E-P-L-H-K]-R-V-P-F-P] ({Benzoyl(4-Br)}-RRSEPLHKRVPFP-OH; lactam 4-8)
EC50 (hAPJ receptor [2]): 0.05 ± 0.004 µM
